From US20040138316A1 (priority 2001, published 2004)

Columns and labels:
man = details: cited from earlier work; for toxicity for man: prior art fumigants
parasites = details: prior art fumigants; cited from earlier work
insects = system: insects
Method: (§1) Laboratory tests were carried out preliminarily both in a ventilated environment and a confined environment by means of treatments by contact or inhalation with 100% commercial n-Hexane, for the sake of brevity called hereinafter “Hexane” with reference to the performance of the practical experimental tests whose execution procedures follow.

mites = system: mites
Method: as §1

[1] = treated products
Excerpt: (§2) Arthropods were introduced both on nonbiological supports such as glass, printed paper, differently colored fabrics (cotton, silk, linen, skin, wool and synthetic) and on biological materials such as ham, hard wheat pasta and hard crust cheeses. […] Also treated was biological material infested by mites, larvae and adult forms of cheese fly and Galleria mellonella using the entire set of tests described above.

[2] = system: mites, larvae and adult forms of cheese fly
Method: Subsequent tests were conducted in a closed chamber consisting of a box (70 cm×50 cm by 120 cm high) with polypropylene walls as this material is among those not attacked by Hexane such as other synthetic plastic materials among which polyethylene, polyester, polyethylene terephthalates in addition to aluminum, copper, carbon steel and stainless steel. […] On the bottom of this box was located a circular aluminum tank (dia. 22 cm×height 15 cm) on the bottom of which was arranged a copper coil in which was circulated hot liquid to heat to evaporation the Hexane fed into the tank. The material to be tested was placed in the box which was then closed hermetically.
Tests were performed with two different techniques, to wit, at reduced pressure and at atmospheric pressure.
Both by the reduced pressure technique and the atmospheric pressure technique quantities of Hexane variable from 50 ml to 800 ml were fed through a second tap having in it a silicon tube drawing from the bottom of the aluminum tank. By circulating hot liquid in the heating coil the Hexane present in liquid phase in the tank was held at a temperature of 70° C. to 75° C. for the entire period of experimentation in order to achieve complete evaporation of the Hexane. A blower was placed on the bottom of the box for homogeneous distribution of the Hexane vapors in the treatment environment.
The temperature in the box during all the tests and as a function of the material to be treated (biological or not), was included in the range 5° C. to 75° C. The duration of the treatment was between 1 and 72 hours for both procedures (atmospheric pressure or reduced pressure). In the reduced-pressure tests the pressure was held in a range of 0.5N/cm2 to 5N/cm2.
At the end of treatment time the box was reopened and the Hexane vapors allowed to free themselves outward.
as §2

Compound: CBr [Methyl bromide]
- toxicity for man (man): very poisonous

Compound: S=C=S [carbon sulfide]
- toxicity for man (man): high toxicity
- insecticidal / parasiticidal effectiveness (parasites): high insecticidal effectiveness

Compound: CCCCCC [Hexane, n-Hexane]
- toxicity index for man following contact (man; contact): low toxicity index
- acute toxicity index for man by inhalation (man; inhalation): high acute toxicity index
- abatement power on flies, mosquitoes, cockroaches, corrodentia, thysanura (insects; contact): high abatement power
- toxic effect on insects by contact (insects; ventilated environment): significant toxic effect
- mites dead 15 minutes after treatment (mites; Petri capsule, treatments of 15 minutes to two hours): all the mites present
- toxic activity on arthropods by inhalation (mites; Petri capsule, verifiable after only a few minutes treatment): strong toxic activity
- arthropods returned to life within 15 days (mites; returned to optimal conditions 18-20 °C, 80% RH after treatment): none of them returned to life
- toxic effect on eggs (hatching) (mites; treatment for longer periods of time): strong hatching reduction
- toxic effect on mites by contact (mites; ventilated environment): weak, temporary toxic effect
- accumulation of toxic substances after treatment [1]: no accumulation of toxic substances
- effect on mites and insects infesting cheese products, mattresses, cushions, sheets, carpet, drapes ([2]; Hexane vapors, closed chamber): same result
- effect on parasites infesting ham and dressed pork products ([2]; after 2 hours exposure to Hexane vapors, mites, larvae and adult forms of cheese fly): desired effect on nearly all parasites
- reclamation of the product (ham, dressed pork products) ([2]; after 48 hours of treatment): complete reclamation
- outcome of closed chamber tests compared with Petri capsule ([2]; approximately 720 g per m3 of air, up to 72 hours, surrounding temperature, atmospheric pressure): confirmed the results obtained in Petri capsule
- concentration at which parasiticidal treatment is already considerably effective ([2]; inhalation): 250 g per cubic meter of air

Compound: C1CO1 [Ethylene oxide]
- toxicity for man (man): highly toxic

Compound: ClC(Cl)(Cl)Cl [Carbon tetrachloride]
- toxicity for man (man): less toxic than carbon sulfide
- insecticidal / parasiticidal effectiveness (parasites): slight parasiticidal power
